Key:
MES 23.5 cells = assay: High-affinity [3H] dopamine uptake assay, MES 23.5 neurons alone; format: cell-based, rat/murine; conditions: 100 μM MPP+ 24 hr, MES23.5 neurons alone, no Ganoderma
Text: (§1) The dopaminergic cell line MES 23.5 was a gift from professor Wei-dong Le, Department of Neurology, Baylor College of Medicine, Houston. The MES 23.5 cells were derived from somatic cell fusion of rat embryonic mesencephalic cells with murine N18TG2 neuroblastoma cells (Crawford, G. D. et al., 1992, J. Neurosci., 12:3392-3398). MES 23.5 cells display many properties of developing neurons of the SN zona compacta and offer several advantages for such initial studies, including greater homogeneity than primary cultures and susceptibility to both free-radical-mediated cytotoxicity and calcium-dependent cell death. […]
(§2) Cells in each well were washed with 1 ml of Krebs-Ringer buffer (16 mM NaH2PO4, 16 mM Na2HPO4, 119 mM NaCl, 4.7 mM KCl, 1.8 mM CaCl2, 1.2 mM MgSO4, 1.3 mM EDTA, and 5.6 mM glucose; pH 7.4). […] After mixing the lysate with 3 ml of scintillation fluid overnight, radioactivity was determined with Perkin Elmer 1450LSC Luminescence Counter (Waltham, USA.). Specific uptake was determined by subtracting the nonspecific counts for the total activity.
(§3) To assess inflammation mediated neurotoxicy, dopaminergic MES23.5 neurons were exposed to 100 μM MPP^+ or 0.25 μg/ml LPS in the absence or presence of microglia co-culture for 24 hr, and neurotoxicity was assessed using [3H] […]

[1] = system: MES 23.5 and microglia co-cultures; assay: High-affinity [3H] dopamine uptake assay, MES 23.5 and microglia co-cultures; format: cell-based, rat; conditions: no Ganoderma
Text: as §1, §2, §3

nitric oxide (NO) = assay: NO assay (Griess reagent) in microglia culture medium; format: cell-based, rat; conditions: stimulus alone: LPS 0.25 μg/ml or MPP+-treated cell membrane fraction 150 μg/ml
Description: (§4) Microglia were isolated and purified from brains of 12-24 hours old Wistar rats supplied by Laboratory Animal Center (Le, W. D. et al., 2001, J. Neurosci., 21:8447-8455). Briefly, after brains were dissected and the meninges removed, the tissues were minced and digested with trypsin (0.25% trypsin-EDTA in 0.1M phosphate buffer) for 20 minutes at 37° C., triturated with a fire-polished Pasteur pipette and filtered through a […] nylon cell strainer. After centrifugation for 5 minutes at 800 rpm, the tissues were suspended into DMEM containing 10% fetal bovine serum (FBS), and seeded in 75 cm^2 flasks at a density of 5×10^5/ml cells per flask.
Two weeks after the seeding, the flasks were shaken at 180 rpm for 4 hours, and the floating cells were collected and centrifuged for 5 minutes at 800 rpm. The cells were resuspended and plated to 96-well plates for further experimental treatment. […]
The production of NO was quantified by measuring the released NO metabolites (nitrates and nitrites) with Griess reagent (Mayer, A. M., 1998, Medicina (B Aires), 58:377-385). […] The medium was incubated with the same volume of Griess reagent at room temperature for 10 minutes before measuring absorbance at 540 nm in a LP-400 ELISA reader (Diagnostics Pasteur, Marne-la-Coquette, France) with appropriate standards. […]

superoxide = assay: Superoxide assay (Assay Kit-WST) in microglia cultures; format: cell-based, rat; conditions: stimulus alone: LPS 0.25 μg/ml or MPP+-treated cell membrane fraction 150 μg/ml
Description: as §4
(§5) Two weeks after the seeding, the flasks were shaken at 180 rpm for 4 hours, and the floating cells were collected and centrifuged for 5 minutes at 800 rpm. The cells were resuspended and plated to 96-well plates for further experimental treatment.
(§6) To study the interaction of reactive microglia with MES 23.5 cells, microglia and MES 23.5 cells were co-cultured in 24-well culture plates. Briefly, the purified microglia were plated at a density of 1×10^4/well 1 day before addition of MES 23.5 cells at a ratio of 2:1 (MES 23.5 to microglia). […]
(§7) Samples were prepared similar to NO samples and the production of these factors were determined using rat TNF-α kit, rat IL-1β ELISA kit and superoxide Assay Kit-WST according to the manufacturer's instructions. […]

TNF-α = TNF-α ELISA in microglia culture medium; format: cell-based, rat; conditions: stimulus alone: LPS 0.25 μg/ml or MPP+-treated cell membrane fraction 150 μg/ml
Description: as §4, §5, §6, §7

IL-1β = IL-1β ELISA in microglia culture medium; format: cell-based, rat; conditions: stimulus alone: LPS 0.25 μg/ml or MPP+-treated cell membrane fraction 150 μg/ml
Description: as §4, §5, §6, §7

TNF-α mRNA = assay: Real-time PCR of TNF-α mRNA in primary microglial cells; format: cell-based, rat; conditions: stimulus alone vs control cells
Text: (§8) Total RNA was extracted from primary microglial cells using RNAprep Kit according to the manufacturer's specifications. RNA was primed with random 9 mers and converted into cDNA by reverse transcription (RT) using AMV reverse transcriptase by following the manufacturer's recommended protocol (Schell, J. B. et al., 2007, J. Neuroimmunol., 189:75-87; Liu, B. et al., 2000, J. Pharmacol. Exp. Ther., 293:607-617). The resulting cDNA was then subjected to real-time PCR with SYBR Premix Ex Taq containing a final concentrations of 1×SYBR Green (Molecular Probes) and 0.2 μM of the primer set of interest in a […] reaction. The PCR mixture was run in the DNA engine Opticon 2 (MJ research; Waltham, Mass.). After an initial 10-second 95° C. denaturation step, the reaction was run through 35 cycles at 95° C. for 5 s, 60° C. for 30 s, and 80° C. for 1 s. Melting curve analysis was executed to ensure the resulting products from the reaction had equivalent and appropriate melting temperatures. The specific primers used are listed in Table 1 (Schell, J. B. et al., 2007, J. Neuroimmunol., 189:75-87). The quantification of target transcripts was based on a calibration curve. The “housekeeping” gene β-actin was targeted for an internal control gene. The test gene data were normalized by corresponding β-actin data.

IL-1β mRNA = assay: Real-time PCR of IL-1β mRNA in primary microglial cells; format: cell-based, rat; conditions: stimulus alone vs control cells
Text: as §8

| Molecule | decrease in [3H] DA uptake (MES 23.5 cells) | decrease in [3H] DA uptake ([1]; 100 μM MPP+ 24 hr, MES23.5 and microglia co-cultures) | increase of NO level (nitric oxide (NO)) | increase of superoxide level (superoxide) | increase of TNF-α level (TNF-α) | increase of IL-1β level (IL-1β) | reduction of [3H] DA uptake ([1]; 0.25 LPS 24 hr, neuron-microglia co-cultures) | TNF-α mRNA expression (TNF-α mRNA) | IL-1β mRNA expression (IL-1β mRNA) |
| --- | --- | --- | --- | --- | --- | --- | --- | --- | --- |
| C[n+]1ccc(-c2ccccc2)cc1 [MPP^+] | about 66% | about 74% |  |  |  |  |  |  |  |
| lipopolysaccharide [LPS] |  |  | 5-11 fold | 5-11 fold | 6-11 fold | 6-11 fold | approximately 50% | significantly increased | significantly increased |

— patent US20100278855A1, “NEUROPROTECTIVE GANODERMA COMPOSITIONS AND METHODS OF USE” (priority 2009, published 2010)
